Test results: ChEMBL document CHEMBL4476871, “SULFAMIDE AND SULFAMATE INHIBITORS OF hHint1” (2018)

Key:
[1] = target: T1, Adenosine 5'-monophosphoramidase HINT1 (Homo sapiens, UniProt P49773); assay: Binding affinity to full-length human N-terminal His6-tagged Hint1 expressed in Escherichia coli Rosetta 2 pLysS cells by isothermal titration calorimetry
[2] = Solubility of the compound in DMSO; format: physicochemical
[3] = Solubility of the compound in water; format: physicochemical; conditions: buffer
[4] = test system: Mus musculus; assay: Suppression of morphine-induced analgesic tolerance in ICR mouse model of spared nerve injury-induced neuropathic pain assessed as reduction in mechanical hypersensitivity administered intrathecally for 3 days prior to morphine challenge on day 4 by Von Frey test; format: functional; conditions: central
[5] = test system: Mus musculus; assay: Effect on spared nerve injury-induced ICR mouse model of neuropathic pain administered intrathecally for 3 days by Von Frey test; format: functional; conditions: central, 72 h
[6] = test system: Mus musculus; assay: Suppression of morphine-induced analgesic tolerance in ICR mouse model of spared nerve injury-induced neuropathic pain assessed as reduction in mechanical hypersensitivity administered intrathecally for 3 days prior to morphine challenge on day 4 by Von Frey test relative to control; format: functional
[7] = test system: Mus musculus; assay: Effect on spared nerve injury-induced ICR mouse model of neuropathic pain administered intrathecally for 3 days by Von Frey test relative to control; format: functional
[8] = Aqueous solubility of the compound; format: physicochemical; conditions: buffer
[9] = target: T1, Adenosine 5'-monophosphoramidase HINT1; assay: Inhibition of human N-terminal His6-tagged Hint1 expressed in Escherichia coli Rosetta 2 pLysS cells by fluorescence assay

T1 sequence (P49773 whole entry): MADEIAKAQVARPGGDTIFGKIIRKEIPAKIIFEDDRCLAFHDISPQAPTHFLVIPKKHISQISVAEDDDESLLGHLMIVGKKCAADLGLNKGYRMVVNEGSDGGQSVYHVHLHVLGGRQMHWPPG

| SMILES | Kd [1] [µM] | solubility [2] | other results |
| --- | --- | --- | --- |
| Nc1nc(N)c2ncn([C@@H]3O[C@H](COC(=O)Nc4ccccc4)[C@@H](O)[C@H]3O)c2n1 | 1.01 | Soluble |  |
| CCN(CC)C(=O)OC[C@H]1O[C@@H](n2cnc3c(=O)[nH]c(N)nc32)[C@H](O)[C@@H]1O | 47.2 | Soluble |  |
| Nc1nc2c([C@@H]3O[C@H](COS(=O)(=O)NC(=O)CCc4c[nH]c5ccccc45)[C@@H](O)[C@H]3O)scc2c(=O)[nH]1 | 5.2 |  | solubility [3]: Soluble |
| Nc1nc2c(ncn2[C@@H]2O[C@H](CSP(=O)(O)NCCc3c[nH]c4ccccc34)[C@@H](O)[C@H]2O)c(=O)[nH]1 |  |  | solubility [3]: Soluble |
| CCNC(=O)OC[C@H]1O[C@@H](n2cnc3c(N)nc(N)nc32)[C@H](O)[C@@H]1O | 2.45 | Soluble |  |
| Nc1nc2c(ncn2[C@@H]2O[C@H](COC(=O)NCCc3c[nH]cn3)[C@@H](O)[C@H]2O)c(=O)[nH]1 | 3.43 | Soluble |  |
| Nc1nc2c(ncn2[C@@H]2O[C@H](COC(=O)NCCc3c[nH]c4ccccc34)[C@@H](O)[C@H]2O)c(=O)[nH]1 |  | Soluble | ED50 [4]: 2.6 mg/kg; ED50 [5]: 2.3 mg/kg; fold change (FC) [6]: 0.8; fold change (FC) [7]: 0.7 |
| Nc1nc2c(ncn2[C@@H]2O[C@H](COC(=O)NCc3ccccc3)[C@@H](O)[C@H]2O)c(=O)[nH]1 | 8.09 | Insoluble |  |
| Nc1nc2c(ncn2[C@@H]2O[C@H](COP(=O)(O)NCCc3c[nH]c4ccccc34)[C@@H](O)[C@H]2O)c(=O)[nH]1 |  |  | solubility [8]: Soluble |
| Nc1nc2c(ncn2[C@@H]2O[C@H](COP(=O)(O)O)[C@@H](O)[C@H]2O)c(=O)[nH]1 | 67 |  |  |
| O=C(CCc1c[nH]c2ccccc12)NS(=O)(=O)OC[C@H]1O[C@@H](n2cnc3c2ncn2ccnc32)[C@@H](O)C1O (stereo partly specified) |  |  | ED50 [4]: 4.6 mg/kg; ED50 [5]: 3.6 mg/kg; solubility [8]: Soluble |
| Nc1ncnc2c1ncn2[C@@H]1O[C@H](CNS(=O)(=O)NC(=O)CCCC[C@@H]2SC[C@@H]3NC(=O)N[C@@H]32)[C@@H](O)[C@H]1O |  |  | IC50 [9]: 25.5 µM |
| Nc1nc2c(ncn2C2OC(COS(=O)(=O)NC(=O)CCc3c[nH]c4ccccc34)C(O)C2O)c(=O)[nH]1 (single isomer, unassigned) |  |  | solubility [8]: Soluble |
| Nc1nc2c(ncn2[C@@H]2O[C@H](CNS(=O)(=O)NC(=O)CCc3c[nH]c4ccccc34)[C@@H](O)[C@H]2O)c(=O)[nH]1 |  |  | solubility [8]: Soluble |
